Test results: patent US20100016590A1, “NILOTINIB INTERMEDIATES AND PREPARATION THEREOF” (TEVA PHARMACEUTICAL INDUSTRIES LTD., priority 2008, published 2010)
Where a name gives a salt, the structure may show the parent alone.

Assay: Humidifying Nilotinib.3HCl: water content measured at regular intervals in a closed glass container with saturated potassium chloride solution
Format: physicochemical
Conditions: for water content (M/C) After 72 Hrs: after 72 Hrs in closed container over saturated potassium chloride solution; for water content (M/C) After 72 Hrs / water content (M/C) After 96 Hrs / M/C Initial (water content): tri hydrochloride; for water content (M/C) After 96 Hrs: after 96 Hrs in closed container over saturated potassium chloride solution; for M/C Initial (water content): before humidifying
Procedure: Weight 4.0 gms (having HPLC purity is 90%) Crude Nilotinib Tri hydrochloride in dry Petri dish and placed in to closed glass container containing (saturated Potassium chloride solution) at 20 to 25 temperature, the water content of crude Nilotinib was measured by regular interval.
Weight 4.0 gms (having HPLC purity is 97.91%) Pure Nilotinib Tri hydrochloride in dry Petri dish and placed in to closed glass container containing (saturated Potassium chloride solution) at 20 to 25 temperature, the water content of Pure Nilotinib was measured by regular interval.

| water content (M/C) After 72 Hrs (20 to 25 temperature) | water content (M/C) After 96 Hrs (20 to 25 temperature) | M/C Initial (water content) | water content (M/C) After 24 Hrs (after 24 Hrs in closed container over saturated potassium chloride solution, 20 to 25 temperature) | water content (M/C) After 48 Hrs (after 48 Hrs in closed container over saturated potassium chloride solution, 20 to 25 temperature) | water content (M/C) After 120 Hrs (after 120 Hrs in closed container over saturated potassium chloride solution, 20 to 25 temperature) | Structure (SMILES) |
| --- | --- | --- | --- | --- | --- | --- |
| 14.90% | 14.41% | 4.55% |  |  |  | Cc1cn(-c2cc(NC(=O)c3ccc(C)c(Nc4nccc(-c5cccnc5)n4)c3)cc(C(F)(F)F)c2)cn1 [Nilotinib.3HCl (Pure), 3-(4-(pyridin-3-yl)pyrimidin-2-ylamino)-N-(3-(trifluoromethyl)-5-(4-methyl-1H-imidazol-1-yl)phenyl)-4-methylbenzamide tri hydrochloride] |
| 16.40% | 16.36% | 4.31% | 16.33% | 16.89% | 16.53% | Cc1cn(-c2cc(NC(=O)c3ccc(C)c(Nc4nccc(-c5cccnc5)n4)c3)cc(C(F)(F)F)c2)cn1 [Nilotinib.3HCl (crude), 3-(4-(pyridin-3-yl)pyrimidin-2-ylamino)-N-(3-(trifluoromethyl)-5-(4-methyl-1H-imidazol-1-yl)phenyl)-4-methylbenzamide tri hydrochloride] |
